pIC50: −log10 of the molar value.
Legend:
Human BACE-2 = Human BACE-2 (Homo sapiens (Human), UniProt Q9Y5Z0); experiment: Test 2: Inhibition of Human BACE-2; assay type: biochemical; details: recombinant BACE-2, pH 4.5, 1 hour preincubation
Protocol: Test 2: Inhibition of Human BACE-2
(§1) Recombinant BACE-2 (extracellular domain, expressed in baculovirus and purified using standard methods) at 0.1 to 1 nM concentrations is incubated with the test compound at various concentrations for 1 hour at room temperature in 100 mM acetate buffer, pH 4.5, containing 0.1% CHAPS. Activity was measured using a final concentration of 3 μM of the fluorescence-quenched substrate Q-C(HSO3)-Ile-Asp-Leu-Ala-Val-Leu-Asp-HN—CH2—CH2-Mca, where Q=2-nitro-5-amino benzoic acid and Mca=7-methoxy-4-coumarinyl acetic acid. Catalytic turnover was monitored in a Spectramax Gemini fluorescence plate reader (Molecular Devices) in black 96-well microplates using excitation/emission wavelength of 325 nm and 400 nm, respectively. Fluorescence increase was followed for 15 min, in 1 minute's intervals. The fluorescence/time slopes were calculated from duplicate wells and from wells without inhibitor and the IC50 values were calculated using a logistic 4-parameter model.

Human BACE-1 = Human BACE-1 (Homo sapiens (Human), UniProt P56817); experiment: Test 1: Inhibition of Human BACE-1; assay type: biochemical; details: recombinant BACE-1, pH 4.5, 1 hour preincubation
Protocol: Test 1: Inhibition of Human BACE-1
as §1, with “BACE-1” for “BACE-2”

[1] = Test 4: Inhibition of Cellular Release of Amyloid Peptide 1-40; assay type: cell-based, Chinese hamster; details: Cricetulus griseus; CHO cells with human APP, 24 hours with compound; read-out: Test 4 Amyloid-β1-40 release IC50
Protocol: The cells are plated at a density of 8000 cells/well into 96-well microtiter plates and cultivated for 24 hours in DMEM cell culture medium containing 10% FCS. The test compound is added to the cells at various concentrations, and the cells are cultivated for 24 hours in the presence of the test compound. […] The potency of the compound is calculated from the percentage of inhibition of amyloid peptide release as a function of the test compound concentration.

Chain of Human BACE-1 (P56817 46-457): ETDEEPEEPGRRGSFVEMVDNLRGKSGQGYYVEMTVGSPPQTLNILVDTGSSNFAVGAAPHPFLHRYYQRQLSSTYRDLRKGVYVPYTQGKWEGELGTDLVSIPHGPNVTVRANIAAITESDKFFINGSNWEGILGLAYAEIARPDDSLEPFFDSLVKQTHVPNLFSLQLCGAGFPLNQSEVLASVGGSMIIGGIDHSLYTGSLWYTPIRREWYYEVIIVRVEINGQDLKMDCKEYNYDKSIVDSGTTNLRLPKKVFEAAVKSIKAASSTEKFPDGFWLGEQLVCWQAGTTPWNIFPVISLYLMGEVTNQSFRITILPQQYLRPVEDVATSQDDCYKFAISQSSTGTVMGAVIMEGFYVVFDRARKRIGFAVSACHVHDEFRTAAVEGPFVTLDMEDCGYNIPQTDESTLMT
Chain of Human BACE-2 (Q9Y5Z0 63-473): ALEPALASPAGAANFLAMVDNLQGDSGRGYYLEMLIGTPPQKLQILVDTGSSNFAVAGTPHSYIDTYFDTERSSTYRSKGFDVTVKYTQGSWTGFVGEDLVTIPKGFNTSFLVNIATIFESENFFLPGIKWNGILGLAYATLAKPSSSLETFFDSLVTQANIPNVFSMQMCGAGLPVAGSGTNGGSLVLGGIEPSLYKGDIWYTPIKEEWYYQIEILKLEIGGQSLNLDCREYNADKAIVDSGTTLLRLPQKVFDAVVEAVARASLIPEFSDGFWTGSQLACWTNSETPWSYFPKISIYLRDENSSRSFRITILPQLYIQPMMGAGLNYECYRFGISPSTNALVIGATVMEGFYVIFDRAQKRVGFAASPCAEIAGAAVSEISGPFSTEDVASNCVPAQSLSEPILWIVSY

Row | pIC50 (Human BACE-2) | pIC50 (Human BACE-1) | pIC50 [1] | Structure (SMILES)
1 | 7.18 | 7.92 | 8.15 | Cc1cc(C#N)cnc1C(=O)Nc1ccc(F)c([C@@]2(C)N=C(N)OCC2(F)F)n1 [Example 1, 5-Cyano-3-methyl-pyridine-2-carboxylic acid [6-((R)-2-amino-5,5-difluoro-4-methyl-5,6-dihydro-4H-[1,3]oxazin-4-yl)-5-fluoro-pyridin-2-yl]-amide]
2 | < 5.00 | < 5.00 | 5.19 | CC(F)(F)c1nc(N)c(C(=O)Nc2ccc(F)c([C@@]3(C)N=C(N)OCC3(F)F)n2)nc1Cl [Example 34, 3-Amino-6-chloro-5-(1,1-difluoro-ethyl)-pyrazine-2-carboxylic acid [6-((R)-2-amino-5,5-difluoro-4-methyl-5,6-dihydro-4H-[1,3]oxazin-4-yl)-5-fluoro-pyridin-2-yl]-amide]
3 | 6.31 | 6.27 | 6.74 | C[C@]1(c2nc(NC(=O)c3nccnc3N)ccc2F)N=C(N)OCC1(F)F [Example 31, 3-Amino-pyrazine-2-carboxylic acid [6-((R)-2-amino-5,5-difluoro-4-methyl-5,6-dihydro-4H-[1,3]oxazin-4-yl)-5-fluoro-pyridin-2-yl]-amide]
4 | 5.42 | 6.23 | 6.22 | C[C@]1(c2nc(NC(=O)c3ncc(OCC(F)(F)F)nc3N)ccc2F)N=C(N)OCC1(F)F [Example 10, 3-Amino-5-(2,2,2-trifluoro-ethoxy)pyrazine-2-carboxylic acid [6-((R)-2-amino-5,5-difluoro-4-methyl-5,6-dihydro-4H-[1,3]oxazin-4-yl)-5-fluoro-pyridin-2-yl]-amide]
5 | 6.59 | 7.27 | 7.85 | C[C@]1(c2nc(NC(=O)c3ccc(C#N)cn3)ccc2F)N=C(N)OCC1(F)F [Example 35, 5-Cyano-pyridine-2-carboxylic acid [6-((R)-2-amino-5,5-difluoro-4-methyl-5,6-dihydro-4H-[1,3]oxazin-4-yl)-5-fluoro-pyridin-2-yl]-amide]
6 | 6.08 | 7.08 | 7.09 | COCC#Cc1cnc(C(=O)Nc2ccc(F)c([C@@]3(C)N=C(N)OCC3(F)F)n2)c(Cl)c1 [Example 21, 3-Chloro-5-(3-methoxy-prop-1-ynyl)pyridine-2-carboxylic acid [6-((R)-2-amino-5,5-difluoro-4-methyl-5,6-dihydro-4H-[1,3]oxazin-4-yl)-5-fluoro-pyridin-2-yl]-amide]
7 | 5.00 | 5.72 | 6.08 | [2H]C([2H])([2H])C([2H])([2H])Oc1cnc(C(=O)Nc2ccc(F)c([C@@]3(C)N=C(N)OCC3(F)F)n2)c(N)n1 [Example 28, 3-Amino-5-(penta-deutero-ethoxy)-pyrazine-2-carboxylic acid [6-((R)-2-amino-5,5-difluoro-4-methyl-5,6-dihydro-4H-[1,3]oxazin-4-yl)-5-fluoro-pyridin-2-yl]-amide]
8 | 5.85 | 6.80 | 6.85 | C[C@]1(c2nc(NC(=O)c3ncc(C(F)(F)F)nc3N)ccc2F)N=C(N)OCC1(F)F [Example 8, 3-Amino-5-trifluoromethyl-pyrazine-2-carboxylic acid [6-((R)-2-amino-5,5-difluoro-4-methyl-5,6-dihydro-4H-[1,3]oxazin-4-yl)-5-fluoro-pyridin-2-yl]-amide]
9 | 5.35 | 6.62 | 6.60 | C[C@]1(c2nc(NC(=O)c3ncc(OCC(F)F)cc3Cl)ccc2F)N=C(N)OCC1(F)F [Example 24, 3-Chloro-5-(2,2-difluoro-ethoxy)-pyridine-2-carboxylic acid [6-((R)-2-amino-5,5-difluoro-4-methyl-5,6-dihydro-4H-[1,3]oxazin-4-yl)-5-fluoro-pyridin-2-yl]-amide]
10 | 6.92 | 6.48 | 7.06 | C[C@]1(c2nc(NC(=O)c3ncc(F)cc3N)ccc2F)N=C(N)OCC1(F)F [Example 18, 3-Amino-5-fluoro-pyridine-2-carboxylic acid [6-((R)-2-amino-5,5-difluoro-4-methyl-5,6-dihydro-4H-[1,3]oxazin-4-yl)-5-fluoro-pyridin-2-yl]-amide]

Reference: US9163011B2, “Oxazine derivatives and their use in the treatment of disease” (NOVARTIS AG, priority 2011, dated 2015)
